The values that follow come from US20020006900A1, “Colon cancer KH-1 and N3 antigens” (priority 1997, published 2002).

Test [1] concerns Monoclonal Antibody BR 96 (Le^y related). In words: Dot-blot immune stain of carbohydrates with monoclonal antibody BR 96. Conditions: for Binding with BR 96 (Le^y related) by dot-blot: 0.5 μg antigen spotted, BR 96 diluted 1:500. Type of test: binding. As to the method: 0.5 μg KH-1 ceramide and other Ley antigen and unrelated antigens were spotted on nitrocellulose strips. Dot blot Immune staining was performed monoclonal antibody BR 96 after blocked with 6% bovine serum albumin in PBS for 1 h and incubated with antibody BR 96 (diluted 1:500 in PBS) overnight at room temperature. The strips were washed with PBS containing 0.05% Tween 20 and incubated with anti-mouse IgG antibody conjugated with horseradish peroxidase at 1:200 dilution for 3 h at room temperature. Then the strips were washed with PBS-0.05% Tween 20 and developed with 4-chloro-1-naphtol-H2O2.

Test [2] has as its system Monoclonal Antibody F12 (FucosylGM1). In words: Dot-blot immune stain of carbohydrates with monoclonal antibody F12. Format: binding. Conditions: 0.5 μg antigen spotted.

With Globo H ceramide [reference compound], the “Binding with BR 96 (Le^y related) by dot-blot” value in test [1] is reported as “negative”. Also, the “Binding with F12 (FucosylGM1) by dot-blot” value in test [2] was “negative”.
With KH-1 antigen [KH-1 ceramide], in test [1], the “Binding with BR 96 (Le^y related) by dot-blot” value was “very strong”. In addition, the “Reaction with BR 96 antibody by dot-blot” value in test [1] (compared with other Le^y related antigens) is given as “reacted very strongly”. In addition, the “Binding with F12 (FucosylGM1) by dot-blot” value in test [2] was “negative”.
